Test results reported in patent US20240294572A1, “Antimicrobial Peptides” (priority 2021, published 2024).
Converted amounts (≈) assume the structure as drawn. Residues, ends and D or L forms follow the SMILES beside them. No end group written: not given here. *: point of attachment. Myristoyl = CCCCCCCCCCCCCC(=O)*; Lauroyl = CCCCCCCCCCCC(=O)*; Decanoyl = CCCCCCCCCC(=O)*; Hexanoyl = CCCCCC(=O)*

How the values were obtained:
Assay type in all cases: cell-based
[1] = system: human red blood cells (hRBCs); settings: red cells of human, 1 h
Protocol: Hemolytic assays of peptides were performed as described (Lakshmaiah, et al. (2020) Proc. Natl. Acad. Sci., 117:19446-19454). Briefly, human red blood cells (hRBCs) were obtained from UNMC Blood Bank. The cells were washed 3× with isotonic saline (0.9% NaCl) and diluted to 2% (v/v). Peptides at various concentrations were added to the 2% blood cells and incubated at 37° C. for 1 hour. Post-incubation, the plates were spun at 2000 rpm for 10 minutes; aliquots of the supernatant were carefully transferred to a fresh 96-well microplate. The amount of cells lysed is proportional to the hemoglobin released and was measured at 545 nm using a ChroMate® microplate reader (Awareness Technology, FL). The percent lysis was calculated by assuming 100% release when human blood cells were treated with 1% Triton™ X-100, and 0% release when incubated with PBS. The peptide concentration that caused 50% lysis of hRBCs is defined as HC50. The cell selectivity index (CSI) was calculated as the ratio between HC50 and the MIC of the corresponding peptide against MRSA.

[2] = system: P. aeruginosa PAO1
Protocol: (§1) The antibacterial activity of peptides was evaluated using a standard broth microdilution protocol (Clinical Laboratories Standards Institute (CLSI): M07-A10. Methods for Dilution Antimicrobial Susceptibility Tests for Bacteria that grow aerobically; Approved Standard, Tenth Edition, 2015) with minor modifications as described (Mishra, et al. (2019) Proc. Natl. Acad. Sci., 116:13517-13522). In brief, peptides (10 μL per well) with 2-fold dilutions were made in 96-well polystyrene microplates. Subsequently, the logarithmic phase bacterial cultures (i.e., optical density at 600 nm ˜0.5) were diluted to 0.001 OD and aliquoted to 90 μL per well. The plates were incubated overnight at 37°° C. Bacterial controls were treated with water, and the wells containing only the TSB media were used as blank. Positive controls included the parent peptide LL-37 as well as KR12. Post incubation, the plates were read at 630 nm using ChroMate® 4300 Microplate Reader (Awareness Technology, FL).

[3] = system: Klebsiella pneumonia ATCC 13883; test: Antibacterial broth microdilution MIC
Protocol: as §1

[4] = system: E. coli ATCC 25922
Protocol: as §1
(§2) To study the influence of medium conditions on the antimicrobial activity of peptides against S. aureus USA300, different pH, sodium chloride (NaCl), human sera were included into the antibacterial assays. Control experiments in TSB without any additions (pH 7.4) were set up in the same manner. In addition, antimicrobial activities of human LL-37, KR12, and C10-KR8d were compared in 10%, 50%, and 100% TSB as well as in TSB and MHB using E. coli ATCC 25922 and S. aureus USA300 LAC.

[5] = system: S. aureus USA300 LAC; settings: USA300
Protocol: as §1, §2

Compound	HC50 [1]	MIC (μM) PA [2]	MIC (μM) KP [3]	MIC (μM) EC [4]	MIC (μM) SA [5]	Minimal inhibitory concentration against E. coli, 10% TSB [4]	Minimal inhibitory concentration against E. coli, 50% TSB [4]	Minimal inhibitory concentration against E. coli, 100% MHB [4]	Minimal inhibitory concentration against S. aureus, 10% TSB [5]	Minimal inhibitory concentration against S. aureus, 50% TSB [5]	Minimal inhibitory concentration against S. aureus, 100% MHB [5]	Minimal inhibitory concentration against S. aureus, 100% TSB [5]
CCCCCCCCCCCCCC(=O)N[C@@H](CCCCN)C(=O)N[C@@H](CCCNC(=N)N)C(=O)N[C@H](C(=O)N[C@@H](Cc1c[nH]c2ccccc12)C(=O)N[C@@H](CCC(N)=O)C(=O)N[C@@H](CCCNC(=N)N)C(=O)N[C@H](C(=O)N[C@@H](CCCCN)C(=O)N[C@@H](CC(=O)O)C(=O)N[C@@H](Cc1ccccc1)C(N)=O)[C@@H](C)CC)[C@@H](C)CC [Peptide C14-KR10] (Myristoyl-KRIWQRIKDF-NH2)	<25 µM	12.5 µM (≈ 20 µg/mL)	6.2 µM (≈ 9.91 µg/mL)	50 µM (≈ 80 µg/mL)	3.1 µM (≈ 4.96 µg/mL)	–	–	–	–	–	–	–
CCCCCC(=O)N[C@@H](CCCCN)C(=O)N[C@@H](CCCNC(=N)N)C(=O)N[C@H](C(=O)N[C@@H](Cc1c[nH]c2ccccc12)C(=O)N[C@@H](CCC(N)=O)C(=O)N[C@@H](CCCNC(=N)N)C(=O)N[C@H](C(=O)N[C@@H](CCCCN)C(=O)N[C@@H](CC(=O)O)C(=O)N[C@@H](Cc1ccccc1)C(N)=O)[C@@H](C)CC)[C@@H](C)CC [Peptide C6-KR10] (Hexanoyl-KRIWQRIKDF-NH2)	>200 µM	50 µM (≈ 74.3 µg/mL)	>50 µM	50 µM (≈ 74.3 µg/mL)	25 µM (≈ 37.2 µg/mL)	–	–	–	–	–	–	–
KRIVQRIKDFLR-NH2 [KR12, reference compound]	>340 µM	25 µM	>50 µM	50 µM	–	1.6 µM	3.1 µM	>50 µM	6.2 µM	>50 µM	>50 µM	>50 µM
CCCCCCCCCC(=O)N[C@@H](CCCCN)C(=O)N[C@@H](CCCNC(=N)N)C(=O)N[C@H](C(=O)N[C@@H](Cc1c[nH]c2ccccc12)C(N)=O)[C@@H](C)CC [Peptide C10-KR4] (Decanoyl-KRIW-NH2)	150 µM	12.5 µM (≈ 9.44 µg/mL)	>50 µM	50 µM (≈ 37.8 µg/mL)	12.5 µM (≈ 9.44 µg/mL)	–	–	–	–	–	–	–
CCCCCCCCCCCC(=O)N[C@@H](CCCCN)C(=O)N[C@@H](CCCNC(=N)N)C(=O)N[C@H](C(=O)N[C@@H](Cc1c[nH]c2ccccc12)C(=O)N[C@@H](CCC(N)=O)C(=O)N[C@@H](CCCNC(=N)N)C(=O)N[C@H](C(=O)N[C@@H](CCCCN)C(=O)N[C@@H](CC(=O)O)C(=O)N[C@@H](Cc1ccccc1)C(=O)N[C@@H](CC(C)C)C(=O)N[C@@H](CCCNC(=N)N)C(N)=O)[C@@H](C)CC)[C@@H](C)CC [Peptide C12-KR12] (Lauroyl-KRIWQRIKDFLR-NH2)	<25 µM	>50 µM	12.5 µM (≈ 23 µg/mL)	>50 µM	6.2 µM (≈ 11.4 µg/mL)	–	–	–	–	–	–	–
CCCCCCCCCC(=O)N[C@@H](CCCCN)C(=O)N[C@@H](CCCNC(=N)N)C(=O)N[C@H](C(=O)N[C@@H](Cc1c[nH]c2ccccc12)C(=O)N[C@@H](CCC(N)=O)C(=O)N[C@@H](CCCNC(=N)N)C(N)=O)[C@@H](C)CC [Peptide C10-KR6] (Decanoyl-KRIWQR-NH2)	>340 µM	25 µM (≈ 26 µg/mL)	>50 µM	50 µM (≈ 52 µg/mL)	12.5 µM (≈ 13 µg/mL)	–	–	–	–	–	–	–
CCCCCCCCCCCC(=O)N[C@@H](CCCCN)C(=O)N[C@@H](CCCNC(=N)N)C(=O)N[C@H](C(=O)N[C@@H](Cc1c[nH]c2ccccc12)C(=O)N[C@@H](CCC(N)=O)C(=O)N[C@@H](CCCNC(=N)N)C(N)=O)[C@@H](C)CC [Peptide C12-KR6] (Lauroyl-KRIWQR-NH2)	75 µM	6.2 µM (≈ 6.62 µg/mL)	>50 µM	12.5 µM (≈ 13.3 µg/mL)	3.1 µM (≈ 3.31 µg/mL)	–	–	–	–	–	–	–
CCCCCCCCCC(=O)N[C@@H](CCCCN)C(=O)N[C@@H](CCCNC(=N)N)C(=O)N[C@H](C(=O)N[C@@H](Cc1c[nH]c2ccccc12)C(=O)N[C@@H](CCC(N)=O)C(=O)N[C@@H](CCCNC(=N)N)C(=O)N[C@H](C(=O)N[C@@H](CCCCN)C(=O)N[C@@H](CC(=O)O)C(=O)N[C@@H](Cc1ccccc1)C(N)=O)[C@@H](C)CC)[C@@H](C)CC [Peptide C10-KR10] (Decanoyl-KRIWQRIKDF-NH2)	50 µM	–	6.2 µM (≈ 9.57 µg/mL)	3.1 µM (≈ 4.78 µg/mL)	1.5 µM (≈ 2.31 µg/mL)	–	–	–	–	–	–	–
CCCCCC(=O)N[C@@H](CCCCN)C(=O)N[C@@H](CCCNC(=N)N)C(=O)N[C@H](C(=O)N[C@@H](Cc1c[nH]c2ccccc12)C(=O)N[C@@H](CCC(N)=O)C(=O)N[C@@H](CCCNC(=N)N)C(=O)N[C@H](C(=O)N[C@@H](CCCCN)C(=O)N[C@@H](CC(=O)O)C(=O)N[C@@H](Cc1ccccc1)C(=O)N[C@@H](CC(C)C)C(=O)N[C@@H](CCCNC(=N)N)C(N)=O)[C@@H](C)CC)[C@@H](C)CC [Peptide C6-KR12] (Hexanoyl-KRIWQRIKDFLR-NH2)	25 µM	12.5 µM (≈ 22 µg/mL)	6.2 µM (≈ 10.9 µg/mL)	3.1 µM (≈ 5.44 µg/mL)	<1.5 µM	–	–	–	–	–	–	–
CCCCCC(=O)N[C@@H](CCCCN)C(=O)N[C@@H](CCCNC(=N)N)C(=O)N[C@H](C(=O)N[C@@H](Cc1c[nH]c2ccccc12)C(=O)N[C@@H](CCC(N)=O)C(=O)N[C@@H](CCCNC(=N)N)C(=O)N[C@H](C(=O)N[C@@H](CCCCN)C(N)=O)[C@@H](C)CC)[C@@H](C)CC [Peptide C6-KR8] (Hexanoyl-KRIWQRIK-NH2)	>200 µM	>50 µM	>50 µM	>50 µM	>50 µM	–	–	–	–	–	–	–
CCCCCC(=O)N[C@@H](CCCCN)C(=O)N[C@@H](CCCNC(=N)N)C(=O)N[C@H](C(=O)N[C@@H](Cc1c[nH]c2ccccc12)C(N)=O)[C@@H](C)CC [Peptide C6-KR4] (Hexanoyl-KRIW-NH2)	>200 µM	>50 µM	>50 µM	>50 µM	>50 µM	–	–	–	–	–	–	–
CCCCCCCCCCCC(=O)N[C@@H](CCCCN)C(=O)N[C@@H](CCCNC(=N)N)C(=O)N[C@H](C(=O)N[C@@H](Cc1c[nH]c2ccccc12)C(=O)N[C@@H](CCC(N)=O)C(=O)N[C@@H](CCCNC(=N)N)C(=O)N[C@H](C(=O)N[C@@H](CCCCN)C(=O)N[C@@H](CC(=O)O)C(=O)N[C@@H](Cc1ccccc1)C(N)=O)[C@@H](C)CC)[C@@H](C)CC [Peptide C12-KR10] (Lauroyl-KRIWQRIKDF-NH2)	<25 µM	–	3.1 µM (≈ 4.87 µg/mL)	6.2 µM (≈ 9.74 µg/mL)	1.5 µM (≈ 2.36 µg/mL)	–	–	–	–	–	–	–
CCCCCCCCCCCCCC(=O)N[C@@H](CCCCN)C(=O)N[C@@H](CCCNC(=N)N)C(=O)N[C@H](C(=O)N[C@@H](Cc1c[nH]c2ccccc12)C(N)=O)[C@@H](C)CC [Peptide C14-KR4] (Myristoyl-KRIW-NH2)	<25 µM	6.2 µM (≈ 5.03 µg/mL)	12.5 µM (≈ 10.1 µg/mL)	12.5 to 50 µM	3.1 µM (≈ 2.51 µg/mL)	–	–	–	–	–	–	–
CCCCCCCCCCCC(=O)N[C@@H](CCCCN)C(=O)N[C@@H](CCCNC(=N)N)C(=O)N[C@H](C(=O)N[C@@H](Cc1c[nH]c2ccccc12)C(N)=O)[C@@H](C)CC [Peptide C12-KR4] (Lauroyl-KRIW-NH2)	30 µM	6.2 µM (≈ 4.86 µg/mL)	>50 µM	12.5 µM (≈ 9.79 µg/mL)	3.1 µM (≈ 2.43 µg/mL)	–	–	–	–	–	–	–
CCCCCCCCCCCC(=O)N[C@@H](CCCCN)C(=O)N[C@@H](CCCNC(=N)N)C(=O)N[C@H](C(=O)N[C@@H](Cc1c[nH]c2ccccc12)C(=O)N[C@@H](CCC(N)=O)C(=O)N[C@@H](CCCNC(=N)N)C(=O)N[C@H](C(=O)N[C@@H](CCCCN)C(N)=O)[C@@H](C)CC)[C@@H](C)CC [Peptide C12-KR8] (Lauroyl-KRIWQRIK-NH2)	35 µM	3.1 µM (≈ 4.06 µg/mL)	>50 µM	6.2 µM (≈ 8.11 µg/mL)	1.5 µM (≈ 1.96 µg/mL)	–	–	–	–	–	–	–
CCCCCCCCCCCCCC(=O)N[C@@H](CCCCN)C(=O)N[C@@H](CCCNC(=N)N)C(=O)N[C@H](C(=O)N[C@@H](Cc1c[nH]c2ccccc12)C(=O)N[C@@H](CCC(N)=O)C(=O)N[C@@H](CCCNC(=N)N)C(N)=O)[C@@H](C)CC [Peptide C14-KR6] (Myristoyl-KRIWQR-NH2)	<25 µM	6.2 µM (≈ 6.79 µg/mL)	>50 µM	12.5 µM (≈ 13.7 µg/mL)	3.1 µM (≈ 3.4 µg/mL)	–	–	–	–	–	–	–
